Test results published in US5180678A, “Uses of substantially pure interleukin-9 receptor” (Ludwig Institute for Cancer Research, priority 1992, dated 1993).

Key:
TS1 cells = experiment: Internalization of bound labelled rIL-9 (resistance to acid induced dissociation); type: cell-based, mouse; conditions: TS1 cells saturated at 4° C. with 3.3×10^-10 M labelled rIL-9, then 37° C.; after about one hour; acid pH 3.0 (FIG. 5)
Protocol: It is known that when cytokines are mixed with their receptors at 37° C., they bind thereto when incubated and this is generally followed by internalization of the cytokine. This is determined via testing for increased resistance to acid induced dissociation of bound radiolabel.
To test this for the labeled rIL-9, 7×10^6 TS1 cell/ml were incubated at 4° C. in binding medium as described supra, but lacking Na3 N, with either 3.3×10^-10 M labelled rIL-9, or this concentration of the labelled cytokine plus a 100 fold excess of unlabeled rIL-9. This saturates the cells. After three hours of incubation, the cells were washed with cold binding medium to remove unbound ligand, and the cells were transferred to medium lacking rIL-9, at a temperature of 37° C. At various time intervals, the cells were incubated for two minutes with either of 360 ul of binding medium, or with citrate buffer (50 mM, pH 2.5). Contact with citrate buffer, in effect, exposed the cells to a pH of 3.0.

T helper clone TUC7.51 = experiment: IL-9 induced proliferation, thymidine incorporation; type: cell-based; conditions: resting TUC7.51 cells, saturating IL-9, thymidine incorporation day 3
Protocol: (§1) The correlation between IL-9 and proliferation of T4 cell lines in response to IL-9 was studied. Resting T cells were collected from two week cultures, and 2×10^6 cells were stimulated by antigen (KLH, 25 ug/ml) in the presence of 70×10^6 & spleen cells for four days. Blasts were isolated by centrifugation and IL-9 binding was determined following incubation with 7.5×10^-10 M labelled rIL-9. Resting cells which had not been restimulated were treated in parallel. Maximal IL-9 induced proliferation was measured by incubation of resting cells in microliter plates (50,000/well), either with or without saturating concentrations of IL-9. Radioactive thymidine incorporation, which was the manner in which proliferation was determined, was measured on day 3.

T helper clone TUC7.33 = experiment: as above; type: cell-based; conditions: resting TUC7.33 cells, saturating IL-9, thymidine incorporation day 3
Protocol: as §1

T helper clone TUC2.15 = experiment: as above; type: cell-based; conditions: resting TUC2.15 cells, saturating IL-9, thymidine incorporation day 3
Protocol: as §1

T helper clone TUC7.11 = experiment: as above; type: cell-based; conditions: resting TUC7.11 cells, saturating IL-9, thymidine incorporation day 3
Protocol: as §1

Substance: IL-9: lymphokine interleukin-9, T-cell derived growth factor; in Tables II and III the 125I-labelled recombinant form is used
- internalization of IL-9 (TS1 cells): most of the IL-9 was internalized
- IL-9 induced proliferation Stimulatin Index (T helper clone TUC7.51): 23.8
- IL-9 induced proliferation Stimulatin Index (T helper clone TUC7.33): 0.8
- IL-9 induced proliferation Stimulatin Index (T helper clone TUC2.15): 11.2
- IL-9 induced proliferation Stimulatin Index (T helper clone TUC7.11): 1.1
